According to patent publication US8969312B2, “Low side effect pharmaceutical composition containing antituberculosis drugs” (priority 2011, dated 2015):

How the values were obtained:
[1] = target: cytochrome P450 2E1 (CYP2E1) (Homo sapiens, UniProt P05181); assay: CYP2E1 High Throughput Inhibitor Screening Kit, cDNA synthesized microsomal CYP2E1 (MFC to HFC); conditions: for Minimum Effective Dose: Table 3, minimum tested concentration (mg/L) × volume of human liver and intestine (3L)
Description: CYP2E1 High Throughput Inhibitor Screening Kit (BD Bioscience, USA) was used to screen the cytochrome P450 (CYP2E1) inhibitors from 22 Chinese medicine guiding drugs and 10 excipients and microsomal cytochrome P450 (CYP2E1) was synthesized from cDNA (BD Bioscience, USA). The principle of the screening kit is to measure the percentage of CYP2E inhibition, after adding the test sample to substrate MFC (7-Methoxy-4-trifluoromethyl coumarin) and cytochrome P450 (CYP2E1), by measuring the synthesis of standard CYP2E1 metabolite (HFC, 7-Hydroxy-4-trifluoromethyl coumarin) and use control HFC as baseline.
a. 149 μl NADPH-Cofactor Mix and 1 μl 20 mM DDTC were added to the #1 well in a 96-well plate and mixed thoroughly,
b. Add 100 μl Cofactor/acetonitrile mix to #2 to #12 wells, and well #1 to #8 are positive control. Well #9 and 10 are control and well #11 and #12 are blank,
c. […] Preparation of Experimental Groups: a. […] Transfer 50 μl from well #1 and #2 and added to well #3 and mixed thoroughly (triplicate for each sample), 3. Initiation and Termination of the Reaction: a. The 96-well plate was incubated at 37° C. for […], b. 100 μl of Enzyme/Substrate Mix was added to every well and mixed thoroughly except the blank wells, c. The 96-well plate was incubated at 37° C. for 40 min, d. 75 μl Stop Solution was added to every well and mixed thoroughly, e. Immediately add 100 μl Enzyme/Substrate Mix to blank wells and mixed thoroughly, f. Measure with a Fluoroskan Ascent FL (Thermo Electron Corporation, Finland) with excitation at 405 nm and emission at 538 nm, 4. The fluorescence was transverse into CYP 2E1 metabolite standard (HFC) concentration (pmol) and the percentage (%) of CYP 2E1 inhibition was calculated using control as baseline by following equation: […]

amidase = assay: Mouse liver microsomal amidase, isoniazid to isonicotinic acid; type: biochemical
Description: Mouse liver microsomes were used as the source of amidase, and isoniazid was used as the amidase metabolism drugs. quantitative isoniazid was catalyzed into metabolites isonicotinic acid (INA) by amidase, and was used as the index for measurement of the amidase activity for establishment of the platform for screening in vitro amidase activity inhibitors. The HPLC system includes a Shimadzu the LC-LOAD pump, 1 Shimadzu system control and a Shimadzu autosampler (Shimadzu Scientific Instrument, Japan). A C18 column (particle size 5 μm, inner diameter of 50×4.6 mm, 25 cm) containing 70% methanol and 30% ammonium formate (50 mM, pH=2.5) of the mobile phase for HPLC separation, and the experimental steps are outlined as follows:
(2) An aliquot of 150 μL mouse liver microsomal solution was added to 100 μL isoniazid solution in 35 μL 67 mM potassium phosphate buffer solution ([…], pH=7) with a final concentration at 3 mM, and then mixed thoroughly with 15 μL amidase inhibitor (deionized water was added in the control group). (3) Incubation at 37° C. water bath for 30 minutes. (4) An aliquot of 300 μL acetonitrile (ACN) was added and mixed thoroughly, and incubated for 6 minutes. (5) An aliquot of 30 μL perchloric acid was then mixed and incubated for 6 minutes. (6) The mixture was centrifuged at 13000 g for 6 minutes. (7) After centrifugation, 100 μL of the supernatant was injected into HPLC. (8) Methanol ammonium formate (50 mM, pH=2.5)=70:30 (V/V) was selected as the mobile phase, and the flow rate was controlled at […] and detected at 270 nm UV. […] The amidase inhibition % was then calculated using the following formula: […]

[2] = target: human liver microsomal cytochrome P450 2E1 (CYP2E1) (Homo sapiens, UniProt P05181); assay: Human liver microsomal CYP2E1, chlorzoxazone 6-hydroxylation;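 also: chlorzoxazone added as substrate, 6-hydroxychlorzoxazone formation quantified by LC/MS/MS after 30 min at 37 °C with NADP+ regenerating system, compared against solvent control without test sample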
Sequence of human liver microsomal cytochrome P450 2E1 (CYP2E1) (P05181 whole entry): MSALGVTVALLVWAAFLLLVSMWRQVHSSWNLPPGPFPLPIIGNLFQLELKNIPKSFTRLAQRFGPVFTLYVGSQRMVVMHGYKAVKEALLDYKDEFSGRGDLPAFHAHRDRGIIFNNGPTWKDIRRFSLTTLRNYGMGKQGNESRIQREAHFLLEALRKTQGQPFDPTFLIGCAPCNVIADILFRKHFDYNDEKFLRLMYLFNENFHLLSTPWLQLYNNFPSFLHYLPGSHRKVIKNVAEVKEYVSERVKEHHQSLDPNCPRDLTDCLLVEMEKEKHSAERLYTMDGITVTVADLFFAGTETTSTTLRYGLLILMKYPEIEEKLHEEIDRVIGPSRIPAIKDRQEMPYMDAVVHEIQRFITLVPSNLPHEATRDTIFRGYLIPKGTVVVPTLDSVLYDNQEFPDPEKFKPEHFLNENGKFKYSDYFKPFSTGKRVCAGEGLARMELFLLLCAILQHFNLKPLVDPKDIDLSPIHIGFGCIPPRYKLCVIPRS
Description: (§1) Microsomes prepared from human liver were used to extract cytochrome P450 2E1 (CYP2E1) and CYP2E1 inhibitors were screened from 39 Chinese medicine guiding drugs and 10 excipients. Chlorzoxazone hydroxylation is a reaction catalyzed primarily by CYP2E1 in liver. The extracted human liver microsomal cytochrome P450 2E1 (CYP2E1) was mixed with its substrate, Chlorzoxazone, and test sample was then added Inhibition of CYP2E1 activity was calculated by measuring CYP2E1 standard metabolite, 6-OH-CZX (6-Hydroxy-Chlorzoxazone), and compared with control 6-OH-CZX.
(§2) After incubation, 16 mM Chlorzoxazone and test samples were added to experimental groups; methanol:sterilized water at 1:1 ratio was added to control groups and DDTC was added to positive control groups,
(§3) Finally, cofactor 1 mM NADP^+, 10 mM G6P and 2 IU G6PD were added and reaction mixtures were transferred to pre-incubation 37° C. water bath for 1 mM and activity was measured after 30 min of reaction
(§4) At the end of reaction, 500 μl acetonitrile was added to stop the reaction followed by 5 g/mL 4-hydroxy-tobutamide after 1 mM incubation. The mixture was then centrifuged and 20 L of supernatant was diluted ten times with methanol/sterilized water and 5 L was used for LC/MS/MS analysis. […] The inhibition of CYP2E1 was then calculated by the following equation:

CYP2E1 = CYP2E1 (Homo sapiens, UniProt P05181); assay: as above; conditions: human; for inhibition at 30 min, 16.5 µM / inhibition at 30 min, 33 µM / inhibition at 30 min, 66 µM / inhibition at 30 min, 0.08 % (w/v) / inhibition at 30 min, […] (w/v): human liver microsomes, pH 7.4, probe Chlorzoxazone; for inhibition at 30 min, 0.167 % (w/v): microsomes, pH 7.4
Sequence of CYP2E1 (P05181 whole entry): as above
Description: as §1, §2, §3, §4

[3] = Table 6, minimum tested concentration (mg/L) × volume of human liver and intestine (3 L)

Sequence of cytochrome P450 2E1 (CYP2E1) (P05181 whole entry): as above

SMILES: O=C1c2c(O)cc(O)cc2O[C@H](c2ccc(O)c(O)c2)[C@H]1O [(+)-Taxifolin]
- Minimum Effective Dose [1]: 17 mg
- Amidase inhibition (amidase; 1 uM): 36.8 ± 11.5%
- Amidase inhibition (amidase; 10 uM): 32.2 ± 5.8%
- Amidase inhibition (amidase; 100 uM): 36.4 ± 3.4%

SMILES: CC(Cc1ccc(O)c(O)c1)C(C)Cc1ccc(O)c(O)c1 (stereo not shown) [Nordihydroguaiaretic acid]
- Minimum Effective Dose [1]: 17 mg
- Minimum Effective Dose [2, 3]: 17 mg

SMILES: COc1c(O)cc2oc(Oc3ccc(O)cc3)cc(=O)c2c1O [Capillarisin]
- Inhibition of CYP 2E1 ([1]; 16.5 μM): 49.05%
- Inhibition of CYP 2E1 ([1]; 66 μM): 76.12%
- Minimum Effective Dose [1]: 17 mg
- Inhibition of CYP 2E1 ([2]; 16.5 μM): 32.89 ± 2.46%
- Inhibition of CYP 2E1 ([2]; 33 μM): 46.22 ± 2.65%
- Inhibition of CYP 2E1 ([2]; 66 μM): 57.31 ± 1.31%
- Minimum Effective Dose [2, 3]: 17 mg
- Amidase inhibition (amidase; 1 uM): −4.1 ± 8.1%
- Amidase inhibition (amidase; 10 uM): 18.2 ± 3.7%
- Amidase inhibition (amidase; 100 uM): 45.7 ± 4.2%

SMILES: O.OC[C@H]1O[C@@H](O[C@H]2[C@H](O)[C@@H](O)C(O)O[C@@H]2CO)[C@H](O)[C@@H](O)[C@H]1O (stereo partly shown) [Lactose monohydrate]
- Minimum Effective Dose ([2]; Table 7): 18 mg
- inhibition at 30 min, 16.5 µM (CYP2E1): 7.8 ± 2.2%
- inhibition at 30 min, 33 µM (CYP2E1): 3.9 ± 2.3%
- inhibition at 30 min, 66 µM (CYP2E1): 8.7 ± 3.8%

SMILES: O=C(CCc1ccc(O)cc1)c1c(O)cc(O)cc1O [Phloretin]
- Minimum Effective Dose [1]: 15 mg
- Minimum Effective Dose [2, 3]: 15 mg
- Amidase inhibition (amidase; 1 uM): 16.5 ± 14.3%
- Amidase inhibition (amidase; 10 uM): 9.8 ± 5.4%
- Amidase inhibition (amidase; 100 uM): 29.9 ± 8.1%

SMILES: O=C(O)c1cc(O)c(O)c(O)c1 [gallic acid]
- Minimum Effective Dose [1]: 9 mg
- Minimum Effective Dose [2, 3]: 9 mg
- Amidase inhibition (amidase; 1 uM): 12.0 ± 5.5%
- Amidase inhibition (amidase; 10 uM): 20.0 ± 5.1%
- Amidase inhibition (amidase; 100 uM): −20.2 ± 26.5%

SMILES: CC1=CC(=O)NS(=O)(=O)O1 [Acesulfame K]
- Minimum Effective Dose ([2]; Table 7): 10 mg
- inhibition at 30 min, 0.08 % (w/v) (CYP2E1): 7.1 ± 2.3%
- inhibition at 30 min, […] (w/v) (CYP2E1): 3.9 ± 2.7%
- inhibition at 30 min, 0.167 % (w/v) (CYP2E1): 14.5 ± 1.9%
- Amidase inhibition (amidase; 0.0005%): −12.4 ± 27.4%
- Amidase inhibition (amidase; 0.005%): −167.2 ± 167.3%
- Amidase inhibition (amidase; 0.05%): 24.3 ± 4.9%

SMILES: COc1ccc([C@@H]2CC(=O)c3c(O)cc(O)cc3O2)cc1O [Hesperetin]
- Minimum Effective Dose [1]: 33 mg
- Minimum Effective Dose [2, 3]: 17 mg
- Amidase inhibition (amidase; 1 uM): −40.5 ± 24.8%
- Amidase inhibition (amidase; 10 uM): 5.4 ± 2.5%
- Amidase inhibition (amidase; 100 uM): 19.0 ± 3.6%

SMILES: Oc1cc(O)c2c(c1)O[C@H](c1ccc(O)c(O)c1)[C@H](O)C2 [(−)-Epicatechin]
- Inhibition of CYP 2E1 ([1]; 16.5 μM): 18.27%
- Inhibition of CYP 2E1 ([1]; 66 μM): 2.57%
- Minimum Effective Dose [1]: 16 mg
- Amidase inhibition (amidase; 1 uM): −25.8 ± 6.2%
- Amidase inhibition (amidase; 10 uM): −4.8 ± 10.5%
- Amidase inhibition (amidase; 100 uM): 3.6 ± 4.3%

SMILES: CCCCC[C@H](O)CC(=O)CCc1ccc(O)c(OC)c1 [6-Gingerol]
- Minimum Effective Dose [1]: 16 mg
- Minimum Effective Dose [2, 3]: 16 mg
- Amidase inhibition (amidase; 1 uM): −8.2 ± 9.0%
- Amidase inhibition (amidase; 10 uM): 0.5 ± 0.7%
- Amidase inhibition (amidase; 100 uM): 22.6 ± 3.4%

SMILES: O=C(O)c1ccc(O)c(O)c1 [Protocatechuic acid]
- Minimum Effective Dose [1]: 8 mg
- Amidase inhibition (amidase; 1 uM): 11.5 ± 4.0%
- Amidase inhibition (amidase; 10 uM): 10.9 ± 2.0%
- Amidase inhibition (amidase; 100 uM): 15.7 ± 8.1%

SMILES: CCCCCCCCCCCC1=C(O)C(=O)C=C(O)C1=O [Embelin]
- Minimum Effective Dose [1]: 16 mg

SMILES: CCCCCCCCCCCCOS(=O)(=O)[O-].[Na+] [Sodium lauryl sulfate]
- Minimum Effective Dose ([2]; Table 7): 14 mg
- inhibition at 30 min, 16.5 µM (CYP2E1): 4.6 ± 1.1%
- inhibition at 30 min, 33 µM (CYP2E1): 6.4 ± 0.9%
- inhibition at 30 min, 66 µM (CYP2E1): 4.9 ± 1.6%
- Amidase inhibition (amidase; 0.0005%): 9.6 ± 5.0%
- Amidase inhibition (amidase; 0.005%): 19.3 ± 2.7%
- Amidase inhibition (amidase; 0.05%): 66.1 ± 2.1%

SMILES: Oc1cc(O)c2c(c1)O[C@H](c1ccc(O)c(O)c1)[C@@H](O)C2 [(+)-Catechin]
- Inhibition of CYP 2E1 ([1]; 16.5 μM): 41.53%
- Inhibition of CYP 2E1 ([1]; 66 μM): 16.45%
- Minimum Effective Dose [1]: 16 mg
- Amidase inhibition (amidase; 1 uM): −2.1 ± 1.1%
- Amidase inhibition (amidase; 10 uM): −11.8 ± 20.2%
- Amidase inhibition (amidase; 100 uM): 1.3 ± 6.3%

SMILES: CCCOC(=O)c1ccc(O)cc1 [Propylparaben]
- Minimum Effective Dose ([2]; Table 7): 9 mg
- inhibition at 30 min, 16.5 µM (CYP2E1): -4.1 ± 1.2%
- inhibition at 30 min, 33 µM (CYP2E1): -17.2 ± 2.4%
- inhibition at 30 min, 66 µM (CYP2E1): -27.3 ± 3.7%

SMILES: O=C(CCc1ccc(O)cc1)c1c(O)cc(O)cc1O[C@@H]1O[C@H](CO)[C@@H](O)[C@H](O)[C@H]1O [Phloridzin]
- Minimum Effective Dose [1]: 24 mg

SMILES: COC(=O)c1ccc(O)cc1 [Methylparaben]
- Minimum Effective Dose ([2]; Table 7): 8 mg
- inhibition at 30 min, 16.5 µM (CYP2E1): 4.6 ± 3.2%
- inhibition at 30 min, 33 µM (CYP2E1): -14 ± 2.2%
- inhibition at 30 min, 66 µM (CYP2E1): -21.5 ± 2%

SMILES: O=C1C[C@@H](c2ccc(O)cc2)Oc2cc(O)cc(O)c21 [Narigenin]
- Minimum Effective Dose [1]: 9 mg
- Minimum Effective Dose [2, 3]: 9 mg

SMILES: O=C(O)CC(O)(CC(=O)O)C(=O)O [Citric acid]
- Minimum Effective Dose ([2]; Table 7): 10 mg
- inhibition at 30 min, 16.5 µM (CYP2E1): 9.9 ± 3.1%
- inhibition at 30 min, 33 µM (CYP2E1): 15.5%
- inhibition at 30 min, 66 µM (CYP2E1): 20.5 ± 1.8%

SMILES: O=C(O)/C=C/c1ccccc1 [trans-Cinnamic acid]
- Minimum Effective Dose [1]: 8 mg
- Amidase inhibition (amidase; 1 uM): −11.9 ± 2.3%
- Amidase inhibition (amidase; 10 uM): −1.4 ± 0.6%
- Amidase inhibition (amidase; 100 uM): 12.6 ± 1.7%

SMILES: O=c1cc(-c2ccccc2)oc2ccc3ccccc3c12 [β-naphthoflavone]
- Inhibition of CYP 2E1 ([1]; 16.5 μM): 6.52%
- Inhibition of CYP 2E1 ([1]; 66 μM): 15.40%
- Minimum Effective Dose [1]: 15 mg

SMILES: C/C=C/C=C/C(=O)O [Sorbic acid]
- Minimum Effective Dose ([2]; Table 7): 6 mg
- inhibition at 30 min, 16.5 µM (CYP2E1): 8.4 ± 1.6%
- inhibition at 30 min, 33 µM (CYP2E1): 10.9 ± 2.1%
- inhibition at 30 min, 66 µM (CYP2E1): 14.8 ± 0.1%

SMILES: CC1CCC(C(C)C)C(O)C1 (stereo not shown) [Menthol]
- Minimum Effective Dose ([2]; Table 7): 8 mg
- inhibition at 30 min, 0.08 % (w/v) (CYP2E1): 20.8 ± 2.1%
- inhibition at 30 min, […] (w/v) (CYP2E1): 10.5 ± 0.4%
- inhibition at 30 min, 0.167 % (w/v) (CYP2E1): 30.8 ± 0.3%

SMILES: O=c1c(-c2ccc(O)cc2)coc2c([C@@H]3O[C@H](CO)[C@@H](O)[C@H](O)[C@H]3O)c(O)ccc12 [Puerarin]
- Minimum Effective Dose [1]: 23 mg
- Amidase inhibition (amidase; 1 uM): 40.9 ± 3.6%
- Amidase inhibition (amidase; 10 uM): 33.0 ± 3.3%
- Amidase inhibition (amidase; 100 uM): 17.9 ± 7.2%

SMILES: O=c1ccc2ccc(O)cc2o1 [Umbelliferone]
- Minimum Effective Dose [1]: 9 mg
- Amidase inhibition (amidase; 1 uM): 24.1 ± 11.6%
- Amidase inhibition (amidase; 10 uM): −1.0 ± 13.2%
- Amidase inhibition (amidase; 100 uM): 33.5 ± 8.2%
